We go through three molecules from patent US8703698B2, “Compositions and methods for treating atherosclerosis” (The University of Chicago, priority 2003, dated 2014).

The subject of one series is ApoE knockout mice. Briefly: Prevention of aortic lesions in ApoE knockout mice on high fat diet. Conditions: liposomes intravenously once every four days, five doses at 6 mg/kg; 20 days high fat diet. The class given is in vivo. An excerpt: In prevention experiments, ApoE knockout mice were placed on a high fat diet and at the same time received once every four days liposomes containing a peptide corresponding to amino acids 1-20 of murine SAA2.1 (SEQ ID NO:1; Group 2 of FIG. 8A and Group hf+p1 of FIG. 8B), liposomes containing a peptide corresponding to amino acids 74-103 of murine SAA2.1 (SEQ ID NO:4; Group 4 of FIG. 8A and Group hf+p4 of FIG. 8B) or liposomes containing a peptide corresponding to amino acids 1-20 of murine SAA2.1 and a peptide corresponding to amino acids 74-103 of murine SAA2.1 (SEQ ID NO:1+SEQ ID NO:4; Group 5 of FIG. 8A and Group hf+p(1+4) of FIG. 8B). The control group received high fat diet alone with no liposomes (Group 1 of FIG. 8A and Group high fat of FIG. 8B). An additional group was placed on a normal mouse chow diet (Group 3 of FIG. 8A and Group low fat of FIG. 8B). […]
To assess the effects of the peptides on aortic atherosclerosis, at the termination of the experiment, the aorta was removed from the animals and opened longitudinally. The endothelial surface was stained with Oil Red O and the area occupied by lipid was measured by image analysis. Furthermore, histological sections of aorta were prepared for microscopic analysis and total lipids were isolated to measure the quantity of cholesterol per weight of tissue. […]

The next series concerns J774 macrophages. Briefly: [3H]cholesterol efflux from cholesterol-loaded J774 macrophages in tissue culture. The class given is cell-based, mouse. Conditions: for cholesterol efflux compared to equimolar liposomes containing full length murine SAA2.1 protein (FIG. 10): cholesterol-laden J774 cells, equimolar concentrations; for cholesterol efflux as compared to controls (FIGS. 3A and 3B) / dose-response of cholesterol efflux (FIGS. 3A and 3B): liposomes; for cholesterol efflux as compared to controls (FIGS. 3A and 3B): peptide at 1 μM (alone printed 1 μl), cholesterol-laden murine macrophages; for dose-response of cholesterol efflux (FIGS. 3A and 3B): 0.05, 0.1, 0.5, 1.0, 2.5 and 5.0 μM; for total cellular [3H]cholesterol released into the medium: pre-incubated 4 hours with liposomes containing 0.5 μM peptide, then cultured in presence of HDL (50 μg/mL).

The test system of the next series is THP-1 cells. In words: Cholesterol efflux from cholesterol-laden human THP-1 cells. The class given is cell-based. The conditions noted are these: liposomal formulations; cholesterol-laden THP-1 cells differentiated with phorbol myristate acetate. As for the experimental part:
These monocytes were differentiated into macrophages with phorbol myristate acetate (100 nM). In these experiments, cholesterol-laden human THP-1 cells were exposed to liposomal formulations comprising a peptide corresponding to amino acids 1-20 of murine SAA2.1 (SEQ ID NO:1), a peptide corresponding to amino acids 74-103 of murine SAA2.1 (SEQ ID NO:4), a peptide corresponding to amino acids 1-20 of murine SAA1.1 plus an arginine at the N-terminus (SEQ ID NO:7), or a peptide corresponding to amino acids 1-20 of murine SAA2.1 (SEQ ID NO:1) and a peptide corresponding to amino acids 74-103 (SEQ ID NO:4) of murine SAA2.1. Results from these experiments are depicted in FIG. 4. […] Studies were carried out to determine whether murine SAA2.1 increases cholesterol export from a human derived monocytic cell line, THP-1 (obtained from American Type Culture Collection, Manassas, Va.; ATCC#TIB-202). Human monocytes were cultured in T-75 flasks with 30 ml RPMI 1640 medium containing 2 mM L-glutamine, 4.5 g/L glucose, 10 mM HEPES, 1.0 mM […] and supplemented with 0.05 mM 2-mercaptoethanol and 10% fetal bovine serum. Subsequently, five million cells were placed in each well of a 6-well tissue culture plate. The monocytes were differentiated into macrophages by treatment with phorbol myristate acetate (100 nM). THP-1 macrophages were enriched with cholesterol by incubating with red blood cells membrane fragments (175 μg as cholesterol) that had been previously labelled with 0.5 μCi/mL[^3H]-cholesterol at 37° C. for 6 hours in 0.2% bovine serum albumin, followed by an overnight equilibration period. Cells were washed four times with PBS/BSA prior to efflux studies. Cells were then incubated at 37° C. with 2 mL RPMI-BSA containing 5% LPDS and 50 μg/mL of either native HDL, SAA-HDL, liposomes containing 2 μmoles of apoA-I, SAA1.1 or 2.1, or liposomes containing 0.5 μmoles synthetic peptides corresponding to amino acid residues 1-20 (SEQ ID NO:1), 21-50 (SEQ ID NO:2), 51-80 (SEQ ID NO:3) or 74-103 (SEQ ID NO:4) of murine SAA2.1. The efflux media were collected at 0, 1, 2, 4, 8, 16 and 24 hours, centrifuged to remove cell debris, and then used to measure the exported counts. […] A portion of the cells was lysed in 0.1N NaOH to estimate both the remaining radioactivity and the cellular protein content. Cellular lipids were extracted from the remaining portion of the cells and analyzed by thin-layer chromatography as described by Mendez et al. (J. Clin. Invest. 1994 94:1698-1705) and Oram et al. (Arterioscler. Thromb. 1991 11:403-414). The radioactivity in appropriate spots was measured to determine total cellular cholesterol counts. Efflux of radioactive label to the medium was calculated as the percentage of total counts (cell+medium counts) in each well.

In series [1] the test system is hepatic, macrophage, and pancreatic cholesterol esterase. The conditions noted are these: Lindhorst 1997; Ely 2001; Tam 2002; cited from earlier work.

As for “DTIADQEANRHGRSGKDPNYYRPPGLPDKY [SEQ ID NO:4, synthetic peptide, residues 74-103 of murine SAA2.1]”, the “aortic lesions, area stained with Oil Red O, versus control animals (FIGS. 8A and 8B)” value in the series on ApoE knockout mice was “showed decreased aortic lesions”. In the series on J774 macrophages, the “cholesterol efflux compared to equimolar liposomes containing full length murine SAA2.1 protein (FIG. 10)” value was “statistically significant greater cholesterol efflux”; the “cholesterol efflux as compared to controls (FIGS. 3A and 3B)” value was “approximately 200%”; the “dose-response of cholesterol efflux (FIGS. 3A and 3B)” value was “increased with increasing amounts of each peptide alone”; the “total cellular [3H]cholesterol released into the medium” value came out at 46.7 ± 3.1%. Besides, in the series on J774 macrophages (pre-incubation with liposomes containing 0.5 μM peptide, HDL as acceptor), the “rate of [3H]cholesterol efflux into medium containing HDL” value is “significant increase in the rate”. In addition, the “cholesterol efflux, time course (FIG. 4)” value in the series with THP-1 cells is reported as “demonstrated to increase cholesterol efflux”.
As to “GFFSFVHEAFQGAGDMWRAY [SEQ ID NO:1, synthetic peptide, residues 1-20 of murine SAA2.1]”, the “aortic lesions, area stained with Oil Red O, versus control animals (FIGS. 8A and 8B)” value with ApoE knockout mice is listed as “showed decreased aortic lesions”. In addition, in the series on J774 macrophages, the “cholesterol efflux compared to equimolar liposomes containing full length murine SAA2.1 protein (FIG. 10)” value is “statistically significant greater cholesterol efflux”; the “cholesterol efflux as compared to controls (FIGS. 3A and 3B)” value is “approximately 200%”; the “dose-response of cholesterol efflux (FIGS. 3A and 3B)” value was “increased with increasing amounts of each peptide alone”; the “total cellular [3H]cholesterol released into the medium” value is given as 60.6 ± 3.6%. The “cholesterol efflux, time course (FIG. 4)” value in the series on THP-1 cells is on record as “demonstrated to increase cholesterol efflux”.

B1: GFFSFVHEAFQGAGDMWRAYTDMKEANWKNSDKYFHARGNYDAAQRGPGGVWAAEKISD GREAFQEFFGRGHEDTIADQEANRHGRSGKDPNYYRPPGLPDKY (protein, listed as Mus musculis)
chain: GFFSFVHEAFQGAGDMWRAYTDMKEANWKNSDKYFHARGNYDAAQRGPGGVWAAEKISDGREAFQEFFGRGHEDTIADQEANRHGRSGKDPNYYRPPGLPDKY
notes: full length murine serum amyloid A isoform 2.1 purified from acute phase plasma
For B1, in series [1], the “cholesterol esterase activities in vitro” value is “stimulate hepatic, macrophage, and pancreatic cholesterol esterase activities in vitro”.
